Data published in ChEMBL document CHEMBL1201862, “PubChem BioAssay data set” (2004).
Where “and” joins values, the source holds several entries; their conditions need not be identical. Identical values can stand only once.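 Method: 48-hour compound exposure of cells in 96-well plates, five concentrations, linear interpolation of endpoints. GI50: concentration for 50% inhibition of growth.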 Calls of active or inactive are those of the source. Rule as the data show it: active = GI50 up to about 1.1 µM and inactive = higher. *1 amine or outer side, *2 acyl side, *3 side chain or, on linkers, in order; H or OH if unused. Where a SMILES comes first, the peptide text is derived from it. [ ]: non-standard residue; d: D form. The star is where a group is joined. ξ: configuration not given here. X53 = CC(C)C[C@H](N[*:1])C1=N[C@H](C(=O)[*:2])CS1; Ile(3ξ) = CCC(C)[C@H](N)C(=O)O; Allyl(1,1-Me2) = C=CC(C)(C)*

Key:
Test in all cases: NCI anticancer screen, dose series, 48 h
NCI-H460 = system: NCI-H460
HCT-15 = system: HCT-15
IGROV-1 = system: IGROV-1
Malme-3M = system: Malme-3M
SK-MEL-2 = system: SK-MEL-2
HOP-62 = system: HOP-62
SK-MEL-5 = system: SK-MEL-5
EKVX = system: EKVX
U-251 = system: U-251
PC-3 = system: PC-3
BT-549 = system: BT-549
K562 = system: K562
DU-145 = system: DU-145
MDA-MB-231 = system: MDA-MB-231
SW-620 = system: SW-620
COLO 205 = system: COLO 205
MOLT-4 = system: MOLT-4
T47D = system: T47D
HCC 2998 = system: HCC 2998
CAKI-1 = system: CAKI-1

Row | SMILES | GI50 (NCI-H460) | GI50 (HCT-15) | GI50 (IGROV-1) | GI50 (Malme-3M) | GI50 (SK-MEL-2) | GI50 (HOP-62) | GI50 (SK-MEL-5) | GI50 (EKVX) | GI50 (U-251) | GI50 (PC-3) | GI50 (BT-549) | GI50 (K562) | GI50 (DU-145) | GI50 (MDA-MB-231) | GI50 (SW-620) | GI50 (COLO 205) | GI50 (MOLT-4) | GI50 (T47D) | GI50 (HCC 2998) | GI50 (CAKI-1)
1 | O=C1C=C(Nc2cccnc2)c2ccccc2C1=O | 3.41 µM (inactive) | 4.31 µM | 7.73 µM (inactive) | 2.34 µM (inactive) | 7.23 µM (inactive) | 4.23 µM (inactive) | 1.26 µM (inactive) | 12.2 µM (inactive) | 9.25 µM (inactive) | 8.85 µM (inactive) | 1.44 µM (inactive) | 1.76 µM (inactive) | 4.15 µM (inactive) | 4.61 µM (inactive) | 4.13 µM (inactive) | 21.6 µM (inactive) | 17.6 µM (inactive) | 21.4 µM (inactive) | 11.2 µM (inactive) | 4.58 µM (inactive)
2 | COc1cc2c(/C=C3/C(=O)Nc4ccccc43)c(Cl)n(Cc3ccc(Cl)cc3)c2cc1C | 0.359 µM (active) | 0.242 µM | 0.538 µM (active) | 0.843 µM (active) | 1.16 µM (inactive) | 0.237 µM (active) | 0.384 µM (active) | 1.18 µM (inactive) | 0.307 µM (active) | 0.608 µM (active) | 0.382 µM (active) | 0.365 µM (active) | 0.306 µM (active) | 0.216 µM (active) | 0.472 µM (active) | 0.256 µM (active) | 0.264 µM (active) | 0.52 µM (active) | 0.134 µM (active) | 0.263 µM (active)
3 | Cc1nc2ccc(NC3OC(CO)C(O)C(O)C3O)cc2c(=O)n1-c1ccccc1 (centres undefined) | > 100 µM (inactive) | > 100 µM | > 100 µM (inactive) | > 100 µM (inactive) | > 100 µM (inactive) | > 100 µM (inactive) | 58.3 µM (inactive) | > 100 µM (inactive) | > 100 µM (inactive) | > 100 µM (inactive) | > 100 µM (inactive) | > 100 µM (inactive) | > 100 µM (inactive) | > 100 µM (inactive) | > 100 µM (inactive) | > 100 µM (inactive) | > 100 µM (inactive) and > 99.3 µM (inactive) | > 100 µM (inactive) | > 100 µM (inactive) | > 100 µM (inactive)
4 | C/C(=N/NC(=S)N1CC2CCC(CC2)C1)c1cnccn1 | < 0.0109 µM (active) | < 0.01 µM | < 0.01 µM (active) | < 0.01 µM (active) | 0.278 µM (active) | < 0.01 µM (active) | < 0.0175 µM (active) | 0.0101 µM (active) | < 0.01 µM (active) | < 0.01 µM (active) | 0.993 µM (active) | < 0.01 µM (active) | 0.376 µM (active) | < 0.01 µM (active) | < 0.01 µM (active) | < 0.01 µM (active) | < 0.01 µM (active) | < 0.0461 µM (active) | 0.218 µM (active) | < 0.01 µM (active)
5 | C[N+](C)([O-])Cc1cccc(NC(=O)c2ccc(C(=O)Nc3cccc(C[N+](C)(C)[O-])c3)cc2)c1 | > 100 µM (inactive) | > 100 µM | > 100 µM (inactive) | > 100 µM (inactive) | > 100 µM (inactive) | > 100 µM (inactive) | > 100 µM (inactive) | > 100 µM (inactive) | > 100 µM (inactive) | > 100 µM (inactive) | > 100 µM (inactive) | > 100 µM (inactive) | > 100 µM (inactive) | > 100 µM (inactive) | > 100 µM (inactive) | > 100 µM (inactive) | > 100 µM (inactive) | > 100 µM (inactive) | > 100 µM (inactive) | > 100 µM (inactive)
6 | COc1ccc2[nH]c3c(c2c1)CCc1ccccc1-3 | 30.8 µM (inactive) | 70.5 µM | 19.8 µM (inactive) | 39.2 µM (inactive) | > 100 µM (inactive) | 35.2 µM (inactive) | > 100 µM (inactive) | 17.6 µM (inactive) | 30.3 µM (inactive) | 52.8 µM (inactive) | > 100 µM (inactive) | > 100 µM (inactive) | > 100 µM (inactive) | 20.2 µM (inactive) | > 100 µM (inactive) | > 100 µM (inactive) | 80.9 µM (inactive) | > 100 µM (inactive) | 64.3 µM (inactive) | > 100 µM (inactive)
7 | c1ccc2c(Cc3[nH]c4ccccc4c3Cc3c[nH]c4ccccc34)c[nH]c2c1 | 1.91 µM (inactive) | 2.76 µM | 1.67 µM (inactive) | 2.05 µM (inactive) | 2.36 µM (inactive) | 3.38 µM (inactive) | 2.17 µM (inactive) | 2.61 µM (inactive) | 2.88 µM (inactive) | 2.38 µM (inactive) | 5.57 µM (inactive) | 2.33 µM (inactive) | 1.8 µM (inactive) | 2.12 µM (inactive) | 1.74 µM (inactive) | 2.07 µM (inactive) | 1.66 µM (inactive) | 2.93 µM (inactive) | 1.64 µM (inactive) | 2.74 µM (inactive)
8 | O=C1/C(=C/c2ccc(Cl)cc2)CSC/C1=C\c1ccc(Cl)cc1 | 3.32 µM (inactive) | 13.9 µM | 1.82 µM (inactive) | 10.3 µM (inactive) | 14.5 µM (inactive) | 4.74 µM (inactive) | 3.45 µM (inactive) | 22.9 µM (inactive) | 1.67 µM (inactive) | 3.52 µM (inactive) | 2.21 µM (inactive) | 3.08 µM (inactive) | 5.87 µM (inactive) | 4.17 µM (inactive) | 3.15 µM (inactive) | 3.02 µM (inactive) | 2.61 µM (inactive) | 6.89 µM (inactive) | 2.07 µM (inactive) | 4.06 µM (inactive)
9 | N#Cc1c(NC(=S)Nc2ccccc2)sc2c1CCCC2 | > 100 µM (inactive) | > 100 µM | > 100 µM (inactive) | > 100 µM (inactive) | > 100 µM (inactive) | > 100 µM (inactive) | > 100 µM (inactive) | > 100 µM (inactive) | > 100 µM (inactive) | > 100 µM (inactive) | > 100 µM (inactive) | > 100 µM (inactive) | > 100 µM (inactive) | > 100 µM (inactive) | > 100 µM (inactive) | > 100 µM (inactive) | > 100 µM (inactive) | > 100 µM (inactive) | > 100 µM (inactive) | > 100 µM (inactive)
10 | CC(C)=CCC[C@@H](C)c1c2nc3ccccc3[nH]c-2c(C)c(=O)c1O | 0.671 µM (active) | 0.236 µM | 2.07 µM (inactive) | 1.58 µM (inactive) | 1.59 µM (inactive) | 1.19 µM (inactive) | 1.63 µM (inactive) | 2.7 µM (inactive) | 1.6 µM (inactive) | 3.32 µM (inactive) | 2.63 µM (inactive) | 1.41 µM (inactive) | 1.61 µM (inactive) | 1.73 µM (inactive) | 3.13 µM (inactive) | 5.65 µM (inactive) | 1.44 µM (inactive) | 1.91 µM (inactive) | 5.45 µM (inactive) | 1.14 µM (inactive)
11 | COc1cc2c(cc1O)NC(=O)[C@@H]1CCCN1C2=O | > 100 µM (inactive) | > 100 µM | > 100 µM (inactive) | > 100 µM (inactive) | > 100 µM (inactive) | > 100 µM (inactive) | > 100 µM (inactive) | > 100 µM (inactive) | > 100 µM (inactive) | > 100 µM (inactive) | > 100 µM (inactive) | > 100 µM (inactive) | > 100 µM (inactive) | > 100 µM (inactive) | > 100 µM (inactive) | > 100 µM (inactive) | > 100 µM (inactive) | > 100 µM (inactive) | > 100 µM (inactive) | > 100 µM (inactive)
12 | COc1cc(C)c(S(=O)(=O)N(CCCN)OCCCN)c(C)c1C | 47.1 µM (inactive) | > 100 µM | 20.2 µM (inactive) | 21.9 µM (inactive) | 22.2 µM (inactive) | 61.7 µM (inactive) | 20.8 µM (inactive) | 31.8 µM (inactive) | 29.9 µM (inactive) | 25.4 µM (inactive) | 26.6 µM (inactive) | 15.6 µM (inactive) | 33.7 µM (inactive) | 25.5 µM (inactive) | 46.1 µM (inactive) | 21 µM (inactive) | 13 µM (inactive) | 29.8 µM (inactive) | 16.6 µM (inactive) | > 100 µM (inactive)
13 | O=c1cc(NNc2ccccc2)[nH]c(=S)[nH]1 | 76.2 µM (inactive) | 17.8 µM | 79.4 µM (inactive) | 37.7 µM (inactive) | 16.6 µM (inactive) | > 100 µM (inactive) | 57 µM (inactive) | 98.9 µM (inactive) | 45 µM (inactive) | > 100 µM (inactive) | 97.5 µM (inactive) | 32.4 µM (inactive) | 64.9 µM (inactive) | 32.1 µM (inactive) | 20.5 µM (inactive) | 49 µM (inactive) | 35.2 µM (inactive) | 27.1 µM (inactive) | 17.4 µM (inactive) | 20.3 µM (inactive)
14 | C=CC(C)(C)OC[C@@H]1NC(=O)CNC(=O)[C@@H]2CCCN2C(=O)[C@H](C(C)CC)NC(=O)[C@@H]2CSC(=N2)[C@H](CC(C)C)NC1=O (some centres undefined) (cyclo(GS(Allyl(1,1-Me2))[X53][Ile(3ξ)]P)) | 37.6 µM (inactive) | 58.1 µM | 59 µM (inactive) | > 100 µM (inactive) | > 100 µM (inactive) | > 100 µM (inactive) | 32.6 µM (inactive) | 64.3 µM (inactive) | > 100 µM (inactive) | 44.2 µM (inactive) | 23.1 µM (inactive) | 41.7 µM (inactive) | 77.6 µM (inactive) | > 100 µM (inactive) | – | > 100 µM (inactive) | 27.5 µM (inactive) | 33.6 µM (inactive) | 83 µM (inactive) | 75 µM (inactive)
